Data on 19 compounds can be found in PubChem BioAssay AID328 (DTP/NCI, 2004).

Values joined by “and” are separate entries in the source; they are usually repeats but may differ in a detail not shown here. Identical values can stand only once. Inconclusive results and toxic doses are left out.

In this assay the test system is BDF1 mice, P388 leukemia ip, median survival T/C. The experiment in a line: NCI In Vivo Anticancer Drug Screen. Data for tumor model P388 Leukemia (intraperitoneal) in B6D2F1 (BDF1) mice. Conditions: endpoint: median survival time, higher = longer survival. An outline of the steps:
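In tumour-bearing mice, survival after compound treatment is set against the vehicle group and given as a quotient.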

[1] abbreviates: dose: 100.0 mg/kg/injection, schedule: Q04DX003 (ip), vehicle: saline with Tween-80.
[2] abbreviates: dose: 200.0 mg/kg/injection, schedule: Q04DX003 (ip), vehicle: saline with Tween-80.
[3] abbreviates: dose: 0.62 mg/kg/injection, schedule: Q01DX009 (ip), vehicle: saline.
The mark [4] stands for this setting: dose: 1.25 mg/kg/injection, schedule: Q01DX009 (ip), vehicle: saline.
Setting [5] is: dose: 50.0 mg/kg/injection, schedule: Q04DX003 (ip), vehicle: saline sonified.
The mark [6] stands for this setting: dose: 100.0 mg/kg/injection, schedule: Q04DX003 (ip), vehicle: saline sonified.
Where [7] appears, read: dose: 25.0 mg/kg/injection, schedule: Q01DX009 (ip), vehicle: saline with Tween-80.
Where [8] appears, read: dose: 50.0 mg/kg/injection, schedule: Q01DX009 (ip), vehicle: saline with Tween-80.
Where [9] appears, read: dose: 100.0 mg/kg/injection, schedule: Q01DX009 (ip), vehicle: saline with Tween-80.
[10] abbreviates: dose: 200.0 mg/kg/injection, schedule: Q01DX009 (ip), vehicle: saline with Tween-80.
Where [11] appears, read: dose: 400.0 mg/kg/injection, schedule: Q01DX009 (ip), vehicle: saline with Tween-80.

As for `CC1CN(C(=O)Nc2ccc(Cl)cc2)CC(C)O1` (stereo unspecified), the T/C (dose: 75.0 mg/kg/injection, schedule: Q01DX009 (ip), vehicle: Klucel (hydroxypropylcellulose) (HPC)) was 110 % of control; the T/C (dose: 150.0 mg/kg/injection, schedule: Q01DX009 (ip), vehicle: Klucel (hydroxypropylcellulose) (HPC)) was 110 % of control; the T/C (dose: 300.0 mg/kg/injection, schedule: Q01DX009 (ip), vehicle: Klucel (hydroxypropylcellulose) (HPC)) was 120 % of control.
Regarding `O=C(CCN1CCCCC1)c1ccccc1`, the T/C reads like this: (dose: 12.5 mg/kg/injection, schedule: Q01DX009 (ip), vehicle: saline) 89 % of control; (dose: 25.0 mg/kg/injection, schedule: Q01DX009 (ip), vehicle: saline) 95 % of control; (dose: 25.0 mg/kg/injection, schedule: Q04DX003 (ip), vehicle: saline) 95 % of control.
`CC(C)(C)SC(=O)C[Si](C)(C)C`: the T/C under setting [1] is 113 % of control and the T/C under setting [2] was 123 % of control.
For `CC(=O)Nc1cc(F)c([N+](=O)[O-])cc1[N+](=O)[O-]`, the T/C by setting is: under setting [3], 115 % of control; under setting [4], 100 % of control; (dose: 2.5 mg/kg/injection, schedule: Q01DX009 (ip), vehicle: Klucel (hydroxypropylcellulose) (HPC)) 105 % of control; (dose: 2.5 mg/kg/injection, schedule: Q01DX009 (ip), vehicle: saline) 300 % of control and 100 % of control; (dose: 5.0 mg/kg/injection, schedule: Q01DX009 (ip), vehicle: Klucel (hydroxypropylcellulose) (HPC)) 115 % of control; (dose: 5.0 mg/kg/injection, schedule: Q01DX009 (ip), vehicle: saline) 300 % of control and 110 % of control. The T/C runs as follows: (dose: 10.0 mg/kg/injection, schedule: Q01DX009 (ip), vehicle: Klucel (hydroxypropylcellulose) (HPC)) 100 % of control; (dose: 10.0 mg/kg/injection, schedule: Q01DX009 (ip), vehicle: saline) 300 % of control and 105 % of control; (dose: 20.0 mg/kg/injection, schedule: Q01DX009 (ip), vehicle: Klucel (hydroxypropylcellulose) (HPC)) 110 % of control; (dose: 20.0 mg/kg/injection, schedule: Q01DX009 (ip), vehicle: saline) 95 % of control.
As to `CCCC(=O)NO`, the T/C is 100 % of control (dose: 100.0 mg/kg/injection, schedule: Q01DX009 (ip), vehicle: saline sonified); 100 % of control (dose: 200.0 mg/kg/injection, schedule: Q01DX009 (ip), vehicle: saline sonified); 100 % of control (dose: 400.0 mg/kg/injection, schedule: Q01DX009 (ip), vehicle: saline sonified).
Consider `CN1CCN(C(=O)Nc2ccc(N=Nc3ccccc3)cc2)CC1`, for which the T/C was 100 % of control (dose: 4.16 mg/kg/injection, schedule: Q01DX009 (ip), vehicle: saline with Tween-80); 90 % of control (dose: 6.25 mg/kg/injection, schedule: Q01DX009 (ip), vehicle: saline with Tween-80); 90 % of control (dose: 9.38 mg/kg/injection, schedule: Q01DX009 (ip), vehicle: saline with Tween-80); 95 % of control under setting [5]; 100 % of control under setting [6].
On to `Cc1ccc2[nH]c(=S)n(-c3cccc(C(F)(F)F)c3)c(=O)c2c1`, for which the T/C under setting [7] was 102 % of control; the T/C under setting [8] was 92 % of control and 94 % of control; the T/C under setting [9] is 102 % of control; the T/C under setting [10] was 93 % of control; the T/C under setting [11] is 102 % of control.
On to `CNC(CCc1ccccc1)C(=O)O` (stereo unspecified), for which the T/C by setting is: under setting [5], 95 % of control; under setting [6], 91 % of control; (dose: 200.0 mg/kg/injection, schedule: Q04DX003 (ip), vehicle: saline sonified) 91 % of control.
Take `CCOP(=O)(N1CC1(C)C)N1CC1(C)C` (stereo unspecified): the T/C is 110 % of control (dose: 50.0 mg/kg/injection, schedule: Q04DX003 (ip), vehicle: alcohol); 280 % of control and 172 % of control (dose: 66.0 mg/kg/injection, schedule: Q04DX003 (ip), vehicle: saline); 272 % of control and 300 % of control (dose: 100.0 mg/kg/injection, schedule: Q04DX003 (ip), vehicle: saline); 272 % of control and 95 % of control (dose: 150.0 mg/kg/injection, schedule: Q04DX003 (ip), vehicle: saline).
Consider `N#CC(C#N)=Cc1ccc(Cl)c(Cl)c1`, for which the T/C runs as follows: (dose: 25.0 mg/kg/injection, schedule: Q01DX009 (ip), vehicle: Klucel (hydroxypropylcellulose) (HPC)) 115 % of control; (dose: 50.0 mg/kg/injection, schedule: Q01DX009 (ip), vehicle: Klucel (hydroxypropylcellulose) (HPC)) 100 % of control; (dose: 50.0 mg/kg/injection, schedule: Q04DX003 (ip), vehicle: Klucel (hydroxypropylcellulose) (HPC)) 100 % of control; (dose: 100.0 mg/kg/injection, schedule: Q01DX009 (ip), vehicle: Klucel (hydroxypropylcellulose) (HPC)) 120 % of control; (dose: 100.0 mg/kg/injection, schedule: Q04DX003 (ip), vehicle: Klucel (hydroxypropylcellulose) (HPC)) 100 % of control.
With `Nc1cc[c]([Hg][Cl])cc1`, the T/C (dose: 1.5 mg/kg/injection, schedule: Q01DX001 (ip), vehicle: Klucel (hydroxypropylcellulose) (HPC)) is 110 % of control; the T/C (dose: 3.0 mg/kg/injection, schedule: Q01DX001 (ip), vehicle: Klucel (hydroxypropylcellulose) (HPC)) was 115 % of control; the T/C (dose: 6.0 mg/kg/injection, schedule: Q01DX001 (ip), vehicle: Klucel (hydroxypropylcellulose) (HPC)) was 100 % of control and 104 % of control.
`NC(N)=Nc1cccc(C(F)(F)F)c1`: the T/C runs as follows: under setting [8], 94 % of control; under setting [9], 100 % of control; under setting [10], 109 % of control.
Consider `O=C(Nc1nnc(C(F)(F)F)s1)c1c(F)cccc1F`, for which the T/C under setting [8] was 92 % of control.
Turning to `c1ccc2c(c1)ccc1c2c[n+](CCCCCCCC[n+]2cc3c4ccccc4ccc3c3ccccc32)c2ccccc12`, the T/C by setting is: (dose: 1.56 mg/kg/injection, schedule: Q01DX009 (ip), vehicle: other) 165 % of control; (dose: 6.25 mg/kg/injection, schedule: Q01DX009 (ip), vehicle: other) 98 % of control; (dose: 12.5 mg/kg/injection, schedule: Q01DX009 (ip), vehicle: other) 106 % of control; (dose: 25.0 mg/kg/injection, schedule: Q01DX009 (ip), vehicle: other) 95 % of control.
On to `OCCN1CCN(CCCN2c3ccccc3Sc3ccc(C(F)(F)F)cc32)CC1`, for which the T/C runs as follows: (dose: 0.31 mg/kg/injection, schedule: Q01DX009 (ip), vehicle: saline) 86 % of control; under setting [3], 90 % of control; (dose: 0.82 mg/kg/injection, schedule: Q01DX009 (ip), vehicle: saline) 86 % of control; under setting [4], 113 % of control; (dose: 12.5 mg/kg/injection, schedule: Q04DX003 (ip), vehicle: saline) 105 % of control.
Take `C(=Nc1ccccc1)c1ccc(-c2ccccc2)cc1`: the T/C by setting is: under setting [9], 115 % of control; under setting [1], 104 % of control; under setting [10], 100 % of control; under setting [2], 104 % of control; under setting [11], 115 % of control; (dose: 400.0 mg/kg/injection, schedule: Q04DX003 (ip), vehicle: saline with Tween-80) 109 % of control.
`NC(=O)N/N=C/c1cccs1`: the T/C under setting [7] is 97 % of control and the T/C under setting [8] was 104 % of control.
Regarding `CC(Oc1ccccc1)C(=O)N=c1scc(-c2ccc(Br)cc2)n1-c1cccc2ccccc12` (stereo unspecified), the T/C reads like this: (dose: 12.5 mg/kg/injection, schedule: Q01DX009 (ip), vehicle: gum acacia) 110 % of control; (dose: 50.0 mg/kg/injection, schedule: Q01DX009 (ip), vehicle: gum acacia) 118 % of control.
For the compound `Cn1c(=O)c2nc(-c3ccc(Cl)c(Cl)c3)c(-c3ccc(Cl)c(Cl)c3)nc2n(C)c1=O`, the T/C was 100 % of control (dose: 3.13 mg/kg/injection, schedule: Q01DX001 (ip), vehicle: saline with Tween-80); 101 % of control (dose: 6.25 mg/kg/injection, schedule: Q01DX001 (ip), vehicle: saline with Tween-80); 99 % of control (dose: 12.5 mg/kg/injection, schedule: Q01DX001 (ip), vehicle: saline with Tween-80); 90 % of control and 101 % of control (dose: 25.0 mg/kg/injection, schedule: Q01DX001 (ip), vehicle: saline with Tween-80); 107 % of control (dose: 50.0 mg/kg/injection, schedule: Q01DX001 (ip), vehicle: saline with Tween-80); 87 % of control (dose: 100.0 mg/kg/injection, schedule: Q01DX001 (ip), vehicle: saline with Tween-80). Besides, the T/C (dose: 400.0 mg/kg/injection, schedule: Q01DX001 (ip), vehicle: saline with Tween-80) is 96 % of control.
